Each block holds one molecule with its values, some of them ahead of it.
Tests used:
[1] = Weight changes and hematologic parameters in mice bearing SCCVII carcinomas; type: in vivo, C3H mice; conditions: for % Weight change / Granulocytes / Lymphocytes / Platelets: median (range)
Procedure: (§1) C3H mice bearing subcutaneously implanted SCCVII squamous cell carcinomas implanted on the dorsal thorax were given a total dose of 450 milligrams porphyrin compound VII per kilogram body weight (70 mg B/kg) via 6 i.p. injections given over a period of 2 days (3/day over 8 hours). Mice were given porphyrin XXIII at a total dose of 160 mg/kg (36 mg/kg B) via 3 i.p. injections given over a period of 8 hours. At one and two days after the last injection, mice were euthanized, and tumor, blood, brain, and liver were removed for boron analyses. The blood was first analyzed for hematologic parameters that indicate toxicity before it was analyzed for boron.

[2] = tested on: SCCVII squamous cell carcinomas; assay: Biodistribution of porphyrins in mice bearing SCCVII squamous cell carcinomas; type: in vivo, C3H mice; conditions: for Average boron concentration, SCCVII Tumor: wet tissue
Procedure: (§2) Porphyrin compounds (VII, XII, XXIII) were emulsified in 3% Cremophor EL and 6% propylene glycol in saline.
(§3) To prepare a solution of ˜3.5 mg/mL porphyrin in 3% Cremophor EL (CRM) and 6% propylene glycol (PRG), the porphyrin was dissolved in tetrahydrofuran (THF) (1.5% of the total volume) and then heated to 40° C. for 15 min. CRM (3% of total volume) was then added and the mixture was heated to 60° C. for 2 hours, which removed most of the THF. After cooling to room temperature, PRG (6% of total volume) was added, followed by slow dropwise addition of saline (89.5% of total volume) with rapid stirring. The solution was degassed by stirring under vacuum (˜30 mm Hg) for 30-60 min and then filtered (Millipore, 8 μm).
as §1

tumors = conditions: in vivo; cited from earlier work
[3] = Weight changes and hematologic parameters in mice bearing EMT-6 carcinomas; type: in vivo, BALB/c mice; conditions: median (range), 5 mice
Procedure: (§4) BALB/c mice bearing subcutaneously implanted EMT-6 mammary carcinomas implanted on the dorsal thorax were given a total dose of 200-230 milligrams porphyrin compound (VII or XII) per kilogram body weight (32-37 mg B/kg). Mice were given six intraperitoneal injections over a 2-day period with 3 injections per day at 4-hour intervals. At one and two days after the last injection, mice were euthanized, and tumor, blood, brain, and liver were removed for boron analyses by direct current-plasma-atomic-emission spectrometry (DCP-AES). The blood was first analyzed for hematologic parameters that indicate toxicity before it was analyzed for boron.

EMT-6 mammary carcinomas = assay: Biodistribution of porphyrins in mice bearing EMT-6 carcinomas (boron by DCP-AES); type: in vivo, BALB/c mice; conditions: n = 5; for Average boron concentration, EMT-6 Tumor: wet tissue
Procedure: as §2, §3, §4

[4] = 180 mg/kg (39 mg B/kg) per table title, 160 mg/kg in text, i.p., 1 d after last injection, 4 mice
[5] = 180 mg/kg (39 mg B/kg) per table title, 160 mg/kg in text, i.p., 2 d after last injection, 4 mice
[6] = 160 mg/kg (36 mg B/kg in title, 160/39 in table) in 3 i.p. injections over 8 hours, 1 d after last injection, 4 mice
[7] = 160 mg/kg (36 mg B/kg in title, 160/39 in table) in 3 i.p. injections over 8 hours, 2 d after last injection, 4 mice
[8] = 230 mg/kg i.p., 1 d after last injection
[9] = 230 mg/kg i.p., 2 d after last injection
[10] = 230 mg/kg (37 mg B/kg) in 6 i.p. injections over 2 days, 1 d after last injection
[11] = 230 mg/kg (37 mg B/kg) in 6 i.p. injections over 2 days, 2 d after last injection
[12] = 200 mg/kg i.p., 1 d after last injection
[13] = 200 mg/kg i.p., 2 d after last injection
[14] = 200 mg/kg (32 mg B/kg) in 6 i.p. injections over 2 days, 1 d after last injection
[15] = 200 mg/kg (32 mg B/kg) in 6 i.p. injections over 2 days, 2 d after last injection
[16] = 450 mg/kg (70 mg B/kg) i.p., 1 d after last injection, 5 mice
[17] = 450 mg/kg (70 mg B/kg) in 6 i.p. injections over 2 days, 1 d after last injection, 5 mice

- % Weight change [1, 4]: 0.5 (−1.9-3.2) %
- Granulocytes [1, 4]: 43 (32-46) % WBC
- Lymphocytes [1, 4]: 53 (48-64) % WBC
- Platelets [1, 4]: 775 (618-881) 10^3/mm^3
- % Weight change [1, 5]: 3.2 (0.9-6.3) %
- Granulocytes [1, 5]: 39 (36-43) % WBC
- Lymphocytes [1, 5]: 57 (51-59) % WBC
- Platelets [1, 5]: 655 (610-723) 10^3/mm^3
- Average boron concentration, Blood [2, 6]: 0.6 ± 0.1 µg/g
- Average boron concentration, Brain [2, 6]: 0.1 ± 0.0 µg/g
- Average boron concentration, Liver [2, 6]: 540 ± 32 µg/g
- Average boron concentration, Blood [2, 7]: 0.3 ± 0 µg/g
- Average boron concentration, Brain [2, 7]: 0.0 ± 0.0 µg/g
- Average boron concentration, Liver [2, 7]: 534 ± 59 µg/g
- Average boron concentration, SCCVII Tumor [2, 6]: 16.9 ± 2.6 µg/g
- Average boron concentration, SCCVII Tumor [2, 7]: 14.5 ± 2.9 µg/g
Molecule: copper (II) meso-5,15-bis[m-(3,5-di-o-carboranylmethoxybenzyloxy)phenyl]-10,20-bis[3-(β-D-glucosyl)phenyl]porphyrin [Porphyrin XXIII]
- platelet count in comparison with the control mice ([1]; moderately high dose of 160 mg/kg): did not show any decrease in platelet count

Molecule: N[C@@H](Cc1ccc(B(O)O)cc1)C(=O)O [BPA, p-boronophenylalanine]
- chemical toxicity (tumors): low chemical toxicity

- % Weight change [3, 8]: 1.2 (−3.5-4.8) %
- Granulocytes [3, 8]: 61 (38-71) % WBC
- Lymphocytes [3, 8]: 36 (26-59) % WBC
- Platelets [3, 8]: 962 (944-1306) 10^3/mm^3
- % Weight change [3, 9]: 3.4 (−2.2-4.8) %
- Granulocytes [3, 9]: 43 (34-76) % WBC
- Lymphocytes [3, 9]: 54 (22-63) % WBC
- Platelets [3, 9]: 797 (736-877) 10^3/mm^3
Molecule: Copper (II) meso-5,15-bis[3-(o-carboranylmethoxy)phenyl]-10,20-bis[3-(β-D-galactose)phenyl]porphyrin [Porphyrin XII]
- Average boron concentration, Blood (EMT-6 mammary carcinomas; [10]): 0.4 ± 0.1 μg B/g
- Average boron concentration, Brain (EMT-6 mammary carcinomas; [10]): 0.0 ± 0.1 μg B/g
- Average boron concentration, Liver (EMT-6 mammary carcinomas; [10]): 473 ± 102 μg B/g
- Average boron concentration, Blood (EMT-6 mammary carcinomas; [11]): 0.2 ± 0.1 μg B/g
- Average boron concentration, Brain (EMT-6 mammary carcinomas; [11]): 0.0 ± 0.1 μg B/g
- Average boron concentration, Liver (EMT-6 mammary carcinomas; [11]): 354 ± 352 μg B/g
- Average boron concentration, EMT-6 Tumor (EMT-6 mammary carcinomas; [10]): 16.7 ± 8.3 μg B/g
- Average boron concentration, EMT-6 Tumor (EMT-6 mammary carcinomas; [11]): 12.6 ± 5.2 μg B/g

- % Weight change [3, 12]: −0.18 (−5.6-4.7) %
- Granulocytes [3, 12]: 49 (43-61) % WBC
- Lymphocytes [3, 12]: 47 (37-54) % WBC
- Platelets [3, 12]: 504 (111-783)* 10^3/mm^3
- % Weight change [3, 13]: 3.5 (−1.5-3.9) %
- Granulocytes [3, 13]: 45 (40-54) % WBC
- Lymphocytes [3, 13]: 52 (44-56) % WBC
- Platelets [3, 13]: 935 (840-1039) 10^3/mm^3
- % Weight change [1, 16]: −1.2 (−2.6-1.9) %
- Granulocytes [1, 16]: 46 (41-50) % WBC
- Lymphocytes [1, 16]: 50 (46-56) % WBC
- Platelets [1, 16]: 739 (628-751) 10^3/mm^3
- thrombocytopenia ([1]; very high dose of 450 mg/kg): no thrombocytopenia
- Average boron concentration, Blood [2, 17]: 1.0 ± 0.1 µg/g
- Average boron concentration, Brain [2, 17]: 0.3 ± 0.1 µg/g
- Average boron concentration, Liver [2, 17]: 787 ± 70 µg/g
- Average boron concentration, SCCVII Tumor [2, 17]: 29.1 ± 7.9 µg/g
Molecule: copper (II) meso-5,15-bis[3-(o-carboranylmethoxy)phenyl]-10,20-bis[3-(β-D-glucosyl)phenyl]porphyrin [Porphyrin VII]
- Average boron concentration, Blood (EMT-6 mammary carcinomas; [14]): 0.4 ± 0.1 μg B/g
- Average boron concentration, Brain (EMT-6 mammary carcinomas; [14]): 0.0 ± 0.0 μg B/g
- Average boron concentration, Liver (EMT-6 mammary carcinomas; [14]): 457 ± 74 μg B/g
- Average boron concentration, Blood (EMT-6 mammary carcinomas; [15]): 0.2 ± 0.0 μg B/g
- Average boron concentration, Brain (EMT-6 mammary carcinomas; [15]): 0.0 ± 0.0 μg B/g
- Average boron concentration, Liver (EMT-6 mammary carcinomas; [15]): 492 ± 83 μg B/g
- Average boron concentration, EMT-6 Tumor (EMT-6 mammary carcinomas; [14]): 20.2 ± 6.3 μg B/g
- Average boron concentration, EMT-6 Tumor (EMT-6 mammary carcinomas; [15]): 19.0 ± 5.4 μg B/g

— US20080279781A1, “Glycosylated Carboranylporphyrins and Uses Thereof” (Brookhaven Science Associates, LLC, priority 2007, published 2008)
